Key:
[1] = Times to onset, minimal and maximal, observed in the indexed observations. [column 'DELAI' in source]; conditions: human
[2] = Highest frequency of acute liver toxicity observed during clinical trials, expressed as a percentage. [column '% AIGUE' in source]; conditions: human
[3] = human
[4] = Highest frequency of moderate liver toxicity observed during clinical trials, expressed as a percentage. [column '% BIOL' in source]; conditions: human
[5] = human; remark: listed apart in the source
[6] = human; remark: listed apart in the source
[7] = human; remark: listed apart in the source
[8] = human, serum
[9] = human; remark: listed apart in the source
[10] = human; remark: listed apart in the source
[11] = human; remark: listed apart in the source
[12] = human; remark: listed apart in the source
[13] = human; remark: listed apart in the source
[14] = human, serum, 4383 h
[15] = Presence of at least one case with successful reintroduction. [column 'REINT' in source]; conditions: human
[16] = Proposed mechanism(s) of liver damage. [column 'MEC' in source]; conditions: human
[17] = human, serum; remark: listed apart in the source
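For Hepatotoxicity (association with vascular disease) in this document: count of indexed literature references reporting vascular liver injury in humans, e.g. peliosis hepatitis, hepatic veno-occlusive disease or Budd-Chiari syndrome.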
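For Hepatotoxicity (benign tumour) in this document: value is a count of indexed literature references citing a benign tumour confirmed by histopathology.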
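For Hepatotoxicity (choleostasis) in this document: human cholestatic liver injury, shown by histopathology or by peak ALT or AST elevation over alkaline phosphatase ratio below 2, value counts indexed literature reports.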
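For Hepatotoxicity (chronic liver disease) in this document: chronic liver injury confirmed by histopathology or persistently raised serum aminotransferase activity beyond 6 months, value given as the count of indexed literature references.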
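For Hepatotoxicity (cirrhosis) in this document: value is a count of indexed literature references reporting cirrhosis confirmed by histopathology.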
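For Hepatotoxicity (cytolytic) in this document: human cytolytic liver injury, shown by histopathology or by a ratio above 5 of peak ALT or AST elevation to alkaline phosphatase elevation, value counts indexed references.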
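For Hepatotoxicity (granulomatous hepatitis) in this document: value is a count of indexed literature references reporting granulomatous liver disease confirmed by histopathology.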
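For Hepatotoxicity (malignant tumour) in this document: malignant tumour confirmed by histopathology, value gives the count of indexed literature references reporting it.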
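For Hepatotoxicity (severe hepatitis) in this document: human clinical data: severe hepatitis, meaning potentially life-threatening liver failure or clinically observed cases, the value counts how many indexed literature references report it.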
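For Hepatotoxicity (steatosis) in this document: steatosis confirmed by histopathology, value is the count of indexed references.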

| Compound | Hepatotoxicity (time to onset) [1] | Hepatotoxicity (acute) [2] [%] | Hepatotoxicity (association with vascular disease) [3] | Hepatotoxicity (moderate) [4] [%] | Hepatotoxicity (benign tumour) [5] | Hepatotoxicity (steatosis) [6] | Hepatotoxicity (granulomatous hepatitis) [7] | Hepatotoxicity (moderate) [8] | Hepatotoxicity (choleostasis) [9] | Hepatotoxicity (cirrhosis) [10] | Hepatotoxicity (severe hepatitis) [11] | Hepatotoxicity (cytolytic) [12] | Hepatotoxicity (malignant tumour) [13] | Hepatotoxicity (chronic liver disease) [14] | Hepatotoxicity (successful reintroduction) [15] | Hepatotoxicity (mechanism) [16] | Hepatotoxicity (acute) [17] | Hepatotoxicity (acute) ([2]; Liver) [%] | Hepatotoxicity (moderate) ([4]; Liver) [%] | Hepatotoxicity (severe hepatitis) ([11]; Liver) | also measured |
| --- | --- | --- | --- | --- | --- | --- | --- | --- | --- | --- | --- | --- | --- | --- | --- | --- | --- | --- | --- | --- | --- |
| O=C(O)c1cccnc1Nc1cccc(C(F)(F)F)c1 [NIFLUMIC ACID] | 3 days - 3.5 weeks | 0 | 0 | 0 | 0 | 0 | 0 | 0 | 1 | 0 | 2 | 4 | 0 | 0 | yes | Allergic | 4 |  |  |  |  |
| CC(C)C[C@H]1C(=O)N2CCC[C@H]2[C@]2(O)O[C@](NC(=O)[C@@H]3C=C4c5cccc6[nH]c(Br)c(c56)C[C@H]4N(C)C3)(C(C)C)C(=O)N12 [BROMOCRIPTINE] | 4 days - 2 months | 0 | 0 | 22 | 0 | 0 | 0 | 6 | 0 | 0 | 0 | 2 | 0 | 0 | yes | Dose-dependant | 2 |  |  |  |  |
| O=C(O)COc1nn(Cc2ccccc2)c2ccccc12 [BENDAZAC] | 3 weeks - 3.5 years |  | 0 |  | 0 | 0 |  | 0 |  | 0 |  |  | 0 | 0 | yes |  | 6 | 0 | 0 | 0 | Hepatotoxicity (granulomatous hepatitis) ([7]; Liver): 0; Hepatotoxicity (choleostasis) ([9]; Liver): 2; Hepatotoxicity (cytolytic) ([12]; Liver): 3; Hepatotoxicity (mechanism) ([16]; Liver): Allergic |
| Nc1nc2ccc(OC(F)(F)F)cc2s1 [RILUZOLE] | 15 days - 9 months | 3.8 |  | 17 | 0 | 1 | 0 | 5 | 0 | 0 | 0 | 5 | 0 | 0 | yes | Dose-dependant | 5 |  |  |  |  |
| NC(=O)NO [HYDROXYUREA] | 1 day - 3 months | 0 | 0 | 12.5 | 0 | 0 | 2 | 5 | 1 | 0 | 1 | 3 | 0 | 0 | yes | Allergic | 4 |  |  |  |  |
| CC(C)NNC(=O)COc1ccc(Cl)cc1 [IPROCLOZIDE] | 1 week - 1 month | 0 | 0 | 0 | 0 | 0 | 0 | 0 | 1 | 0 | 2 | 3 | 0 | 0 | yes | Toxic Metabolite | 3 |  |  |  |  |
| CN1C(=O)CCS(=O)(=O)C1c1ccc(Cl)cc1 (stereo not drawn) [CHLORMEZANONE] | 1 day - 4 weeks | 0 | 0 | 0 | 0 | 0 | 0 | 0 | 7 | 0 | 2 | 1 | 0 | 0 | yes | Allergic, Dose-dependant | 8 |  |  |  |  |
| Cc1cccc(Nc2ccccc2C(=O)O)c1C [MEFENAMIC ACID] | 2 weeks |  | 0 |  | 0 | 0 |  | 0 |  | 0 |  |  | 0 | 0 | yes |  | 3 | 0 | 0 | 1 | Hepatotoxicity (granulomatous hepatitis) ([7]; Liver): 0; Hepatotoxicity (choleostasis) ([9]; Liver): 1; Hepatotoxicity (cytolytic) ([12]; Liver): 2; Hepatotoxicity (mechanism) ([16]; Liver): Allergic |
| NCC(=O)CCC(=O)O [AMINOLEVULINIC ACID] | 3 days | 0 | 0 | 66.7 | 0 | 0 | 0 | 7 | 0 | 0 | 0 | 0 | 0 | 0 | yes | Dose-dependant | 0 |  |  |  |  |
| CCCC(=O)Nc1ccc(OCC(O)CNC(C)C)c(C(C)=O)c1 (stereo not drawn) [ACEBUTOLOL] | 1 day - 1 month |  | 0 |  | 0 | 0 | 0 | 0 | 1 | 0 |  | 1 | 0 | 0 | yes | Allergic |  | 0 | 0 | 0 |  |
